How the values were obtained:
Test in all cases: relative viability (nuclei count vs DMSO), 5 days (fraction); higher = more cells survive
ALW-II-49-7 + OSI-027 = compound: Cc1ccc(C(=O)Nc2cccc(C(F)(F)F)c2)cc1Nc1cncc(C(N)=O)c1 [ALW-II-49-7] + COc1cccc2cc(-c3nc([C@H]4CC[C@H](C(=O)O)CC4)n4ncnc(N)c34)[nH]c12 [OSI-027] (partner 0.5 µM)
Summary of the method: (§1)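 Lung cancer cell lines in 1536-well plates were dosed by pin tool the day after seeding, either with one drug alone or with a fixed anchor-drug dose plus five library-drug doses (not always all listed) in √10 steps. After 5 days, cells were fixed and their nuclei stained in one step (final 0.05% Triton X-100, 1% formaldehyde, 1 ug/ml Hoechst), then counted on 4× images. Relative viability is the nuclei count in treated wells divided by that in vehicle wells. Values are medians of duplicate plates.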

XMD13-2 + Pictilisib = compound: C1CC1C(=O)NC2=NNC3=C2C=CC(=C3)C4=CC(=CC=C4)C(=O)NC5CC5 [XMD13-2] + CS(=O)(=O)N1CCN(Cc2cc3nc(-c4cccc5[nH]ncc45)nc(N4CCOCC4)c3s2)CC1 [Pictilisib] (partner 1 µM)
Summary of the method: as §1

ALW-II-49-7 + Phenformin = compound: Cc1ccc(C(=O)Nc2cccc(C(F)(F)F)c2)cc1Nc1cncc(C(N)=O)c1 [ALW-II-49-7] + N=C(N)NC(=N)NCCc1ccccc1 [Phenformin] (partner 250 µM)
Summary of the method: as §1

ALW-II-49-7 + Pictilisib = compound: Cc1ccc(C(=O)Nc2cccc(C(F)(F)F)c2)cc1Nc1cncc(C(N)=O)c1 [ALW-II-49-7] + CS(=O)(=O)N1CCN(Cc2cc3nc(-c4cccc5[nH]ncc45)nc(N4CCOCC4)c3s2)CC1 [Pictilisib] (partner 1 µM)
Summary of the method: as §1

| Cell Line | relative viability (ALW-II-49-7 + OSI-027; first compound 0.08 µM) | relative viability (ALW-II-49-7 + OSI-027; first compound 0.253 µM) | relative viability (ALW-II-49-7 + OSI-027; first compound 0.8 µM) | relative viability (ALW-II-49-7 + OSI-027; first compound 2.53 µM) | relative viability (ALW-II-49-7 + OSI-027; first compound 8 µM) | relative viability (XMD13-2 + Pictilisib; first compound 0.05 µM) | relative viability (XMD13-2 + Pictilisib; first compound 0.1581 µM) | relative viability (XMD13-2 + Pictilisib; first compound 0.5 µM) | relative viability (XMD13-2 + Pictilisib; first compound 1.581 µM) | relative viability (XMD13-2 + Pictilisib; first compound 5 µM) | relative viability (ALW-II-49-7 + Phenformin; first compound 0.08 µM) | relative viability (ALW-II-49-7 + Phenformin; first compound 0.253 µM) | relative viability (ALW-II-49-7 + Phenformin; first compound 0.8 µM) | relative viability (ALW-II-49-7 + Phenformin; first compound 2.53 µM) | relative viability (ALW-II-49-7 + Phenformin; first compound 8 µM) | relative viability (ALW-II-49-7 + Pictilisib; first compound 0.08 µM) | relative viability (ALW-II-49-7 + Pictilisib; first compound 0.253 µM) | relative viability (ALW-II-49-7 + Pictilisib; first compound 0.8 µM) | relative viability (ALW-II-49-7 + Pictilisib; first compound 2.53 µM) | relative viability (ALW-II-49-7 + Pictilisib; first compound 8 µM) |
| --- | --- | --- | --- | --- | --- | --- | --- | --- | --- | --- | --- | --- | --- | --- | --- | --- | --- | --- | --- | --- |
| NCI-H2228 | 0.502 | 0.269 | 0.496 | 0.59 | 0.471 | 0.44 | 0.452 | 0.566 | 0.351 | 0.402 | 0.286 | 0.215 | 0.328 | 0.251 | 0.334 | 0.477 | 0.464 | 0.428 | 0.34 | 0.254 |
| NCI-H2347 | 0.386 | 0.396 | 0.443 | 0.36 | 0.276 | 0.743 | 0.655 | 0.826 | 0.827 | 0.387 | 0.455 | 0.334 | 0.329 | 0.26 | 0.297 | 0.519 | 0.505 | 0.505 | 0.633 | 0.493 |
| NCI-H2405 | 0.634 | 0.643 | 0.583 | 0.558 | 0.609 | 0.539 | 0.543 | 0.434 | 0.389 | 0.474 | 0.389 | 0.411 | 0.343 | 0.351 | 0.358 | 0.409 | 0.526 | 0.368 | 0.345 | 0.366 |
| NCI-H3122 | 0.905 | 0.254 | 1.05 | – | 1.09 | 0.655 | 0.598 | 0.585 | 0.662 | 0.505 | 0.394 | 0.366 | 0.381 | – | 0.302 | 0.695 | 0.458 | 0.614 | 0.708 | 0.971 |
| PC-3 [JPC-3] | 0.655 | 0.733 | 0.805 | 0.688 | 0.63 | 0.746 | 0.733 | 0.777 | 0.747 | 0.724 | 0.486 | 0.461 | 0.456 | 0.448 | 0.452 | 0.657 | 0.799 | 0.745 | 0.711 | 0.616 |

From the supplement of paper PMC10307832
